Tests used:
[1] = system: PAI-1 expression in Chinese hamster ovary cells (CHO cells); assay: TGF-β-stimulated expression of PAI-1 in CHO cells; format: cell-based; details: dynasore 50 μM; CHO cells (unpublished results)
Protocol: We hypothesize that TGF-β enhancers such as inhibitors of clathrin-dependent endocytosis may ameliorate atherosclerosis caused by cholesterol-induced suppression of TGF-β responsiveness in vascular cells^3,12. To test our hypothesis, we treated hypercholesterolemic ApoE-null mice with dynasore (1 mg/kg body weight) via intraperitoneal administration every two days for 8 weeks. We chose dynasore for two reasons. […] At 50 μM, it enhances TGF-β-stimulated expression of PAI-1 in these cell types by ˜4-5 fold, 2) Dynasore is the only inhibitor tested which alone is capable of stimulating PAI-1 expression. […] The plasma levels of cholesterol in wild-type mice treated with either vehicle only or dynasore were 120±10 and 125±20 mg/dl, respectively.

[2] = system: TGF-β1-stimulated Smad2 phosphorylation in Mv1Lu cells; assay: TGF-β1-stimulated Smad2 phosphorylation, quantitative Western blot (P-Smad2/Smad2); format: cell-based; details: several concentrations of the inhibitors, 100 pM TGF-β1 for 30 min
Protocol: (A-I, K) Cells were pretreated with 10 mg/ml β-CD (A, K), 20 LM MDC (B), 40 μM monensin (C), 20 μM TFP (D) and 0.45 M sucrose (K) or several concentrations (as indicated) of β-CD (E), TFP (F), monensin (G), chloroquine (H), dynasore (I), at 37° C. for 1 h. The cells were then stimulated with vehicle only or […] TGF-β1 (A to I) or several concentrations (as indicated) of TGF-β1 (K). After several time periods, as indicated, at 37° C., cell lysates were analysed by 7.5% SDS PAGE followed by Western blot analysis using antibodies to P-Smad2 and Smad2 and chemiluminescence development (a or top) and quantitation by densitometry (b or bottom). The relative level of P-Smad2 was expressed as arbitrary units (A.U.) (A, B, C, D, K) (b). The relative level of P-Smad2 in cells treated with TGF-β alone was taken as 100% of control (E to I, bottom). The data shown is representative of 3 independent experiments. (J) Cells were pretreated with 10 mg/ml β-CD (c,d) at 37° C. for 1 h. The cells were then stimulated with vehicle only (a) or with 100 pM TGF-β (b,d). After 30 min at 37° C. the cells were fixed and subjected to indirect immunofluorescent staining using antibody to P-Smad2. The magnification is 200×. The data shown is representative of 3 independent experiments.
If TGF-β-induced signaling occurs in endosomes, as reported previously^6-15, inhibitors of clathrin-dependent endocytosis would be expected to attenuate TGF-β-stimulated signaling such as Smad2 phosphorylation and nuclear colocalization^4,5. To test this, Mv1Lu cells were pretreated with vehicle only or with clathrin-dependent endocytosis inhibitors at 37° C. for 30 min and then treated with or without 100 pM TGF-β1. After several time periods, the relative levels of P-Smad2 in treated and stimulated cells were analyzed by quantitative Western blot analysis using antibodies to P-Smad2 and Smad2. […] After stimulation of cells with TGF-β1 for 60 min, β-CD, TFP, MDC and monensin enhanced TGF-β1-stimulated Smad2 phosphorylation by ˜1.5-2.5 fold (FIGS. 1Ab, 1Bb, 1Cb, and 1Db). To further characterize the effects of these inhibitors on Smad2 phosphorylation, Mv1Lu cells were pretreated with vehicle only or with several concentrations of the inhibitors at 37° C. for 30 min and then stimulated with 100 pM of TGF-β1. After 30 min at 37° C., cell lysates were subjected to Western blot analysis using antibodies to P-Smad2 and Smad2 followed by quantitation with densitometry. […] To determine the effect of β-CD on TGF-β1-stimulated nuclear localization of P-Smad2, Mv1Lu cells were pretreated with vehicle only or with β-CD (10 mg/ml). After 1 h at 37° C., cells were stimulated with TGF-β1 ([…]) for 30 min. The nuclear localization of P-Smad2 was then analyzed by indirect fluorescent staining.
To define the coated-pit stages that are important in TGF-β1-induced signaling, we treated Mv1Lu cells with hyperosmotic sucrose (0.45 M) or β-CD and examined TGF-β1-stimulated Smad2 phosphorylation in these cells. […] In cells stimulated with 100 pM TGF-β1, hyperosmotic sucrose attenuated Smad2 phosphorylation by ˜60% (FIG. 1Kb). On the other hand, β-CD enhanced TGF-β1-stimulated Smad2 phosphorylation at all concentrations of TGF-β1. It enhanced TGF-β1-stimulated Smad2 phosphorylation by 2-4 fold when compared with the control (treatment without β-CD) (FIGS. 1Ka and 1Kb).

SMILES: O=C(N/N=C/c1ccc(O)c(O)c1)c1cc2ccccc2cc1O [dynasore]
- enhancement of TGF-β-stimulated expression of PAI-1 [1]: 4-5 fold
- concentration dependence of the effect on TGF-β1-stimulated Smad2 phosphorylation [2]: enhanced TGF-β1-stimulated Smad2 phosphorylation in a concentration-dependent manner
